Active and inactive are the calls of the source. The calls are words filed in the database; no cut-off is given here.
Experiments:
[1] = Bioavailability in 12 hr fasted BALB/c mouse at 80 mg/kg, po measured for 0.083 to 24 hrs by UPLC-MS/MS analysis; format: ADME, organism-based; settings: in vivo, time 0.083-24 hrs
ASPC1 [2] = assay: Effect on TNFRSF21 mRNA levels in human ASPC1 cells at 5 uM incubated for 48 hrs by RT-qPCR analysis; format: functional, cell-based
A549 [3] = assay: Antiproliferative activity against human A549 cells assessed as inhibition of cell proliferation at 1 uM incubated for 4 days by cell counter method; format: functional, cell-based; settings: time 4.0 day
HCT-116 [4] = assay: Effect on ADRB2 mRNA levels in human HCT-116 cells at 5 uM incubated for 48 hrs by RT-qPCR analysis; format: functional, cell-based
ASPC1 [5] = assay: Induction of apoptosis in human ASPC-1 cells assessed as downregulation of Bcl-xl protein at 1 uM inubated for 72 hrs by Western blot analysis; format: functional, cell-based
ASPC1 [6] = assay: Induction of cell cycle arrest in 24 hr starved human ASPC1 cells assessed as accumulation at G0/G1 phase at 1 uM measured after 48 hrs by PI staining based flow cytometric analysis; format: functional
A549 [7] = assay: Effect on TXINP mRNA levels in human A549 cells at 5 uM incubated for 48 hrs by RT-qPCR analysis; format: functional, cell-based
A549 [8] = assay: Effect on TRHDE mRNA levels in human A549 cells at 5 uM incubated for 48 hrs by RT-qPCR analysis; format: functional, cell-based
HCT-116 [9] = assay: Antiproliferative activity against human HCT-116 cells assessed as inhibition of cell proliferation at 1 uM incubated for 4 days by cell counter method; format: functional, cell-based; settings: time 4.0 day
[10] = molecular target: Histone-lysine N-methyltransferase EZH2 (Homo sapiens, UniProt Q15910); assay: Inhibition of EZH2 in human ASPC1 cells assessed as decrease in H3K27me3 levels at 1 uM incubated for 72 hrs by Western blot analysis; format: cell-based
[11] = Toxicity in BALB/c mouse xenografted with human A549 cells assessed as body weight loss at 60 mg/kg, ip administered 6 times weekly for 38 days; format: organism-based; settings: in vivo, 912 h, time 38 day
[12] = Half life in 12 hr fasted BALB/c mouse at 80 mg/kg, ip measured for 0.083 to 24 hrs by UPLC-MS/MS analysis; format: ADME, organism-based; settings: in vivo, time 0.083-24 hrs
A549 [13] = assay: Antitumor activity against human A549 cells xenografted in BALB/c mouse assessed as reduction in tumor weight at 60 mg/kg, ip administered 6 times weekly for 38 days relative to control; format: functional; design: scale not given: the % may be the effect or the level left; settings: time 38 day
A549 [14] = assay: Inhibition of EZH2/BRD4 in human A549 cell lysate assessed as ternary complex formation at 1 uM preincubated for 24 hrs for 30 mins followed by DSP treatment by co-immunoprecipitation method; format: subcellular; settings: time 24.5 hrs
[15] = molecular target: Bromodomain-containing protein 4 (Homo sapiens, UniProt O60885); assay: Inhibition of BRD4 in human A549 cells assessed as increase in p21 levels incubated for 72 hrs by Western blot analysis; format: cell-based; settings: dose <= 2.5 µM, DDE = dose-dependent effect
HCT-116 [16] = assay: Induction of cell cycle arrest in 24 hr starved human HCT-116 cells assessed as accumulation at G0/G1 phase at 1 uM measured after 48 hrs by PI staining based flow cytometric analysis; format: functional
[17] = Cmax in 12 hr fasted BALB/c mouse at 80 mg/kg, ip measured for 0.083 to 24 hrs by UPLC-MS/MS analysis; format: ADME, organism-based; design: dose 80 mg/kg, time upper 24 hrs, time lower 0.083 hrs, route ip; settings: in vivo
A549 [18] = assay: Induction of cell cycle arrest in 24 hr starved human A549 cells assessed as accumulation at G0/G1 phase at 1 uM measured after 48 hrs by PI staining based flow cytometric analysis; format: functional
HCT-116 [19] = assay: Induction of apoptosis in human HCT116 cells assessed as early apoptotic cells at 20 uM measured after 72 hrs by flow cytometry (reference value: 2.8 %); format: functional
ASPC1 [20] = assay: Antiproliferative activity against human ASPC1 cells assessed as cell growth inhibition incubated for 6 days by MTS assay; format: functional, cell-based; settings: ASPC1, 144 h, read-out: IC50
HCT-116 [21] = assay: Induction of apoptosis in human HCT116 cells assessed as upregulation of p21 protein at 1 uM inubated for 72 hrs by Western blot analysis; format: functional, cell-based
HCT-116 [22] = assay: Effect on TXINP mRNA levels in human HCT-116 cells at 5 uM incubated for 48 hrs by RT-qPCR analysis; format: functional, cell-based
[23] = Tmax in 12 hr fasted BALB/c mouse at 80 mg/kg, po measured for 0.083 to 24 hrs by UPLC-MS/MS analysis; format: ADME, organism-based; settings: in vivo, time 0.083-24 hrs

Chain of Histone-lysine N-methyltransferase EZH2 (Q15910 whole entry, looked up): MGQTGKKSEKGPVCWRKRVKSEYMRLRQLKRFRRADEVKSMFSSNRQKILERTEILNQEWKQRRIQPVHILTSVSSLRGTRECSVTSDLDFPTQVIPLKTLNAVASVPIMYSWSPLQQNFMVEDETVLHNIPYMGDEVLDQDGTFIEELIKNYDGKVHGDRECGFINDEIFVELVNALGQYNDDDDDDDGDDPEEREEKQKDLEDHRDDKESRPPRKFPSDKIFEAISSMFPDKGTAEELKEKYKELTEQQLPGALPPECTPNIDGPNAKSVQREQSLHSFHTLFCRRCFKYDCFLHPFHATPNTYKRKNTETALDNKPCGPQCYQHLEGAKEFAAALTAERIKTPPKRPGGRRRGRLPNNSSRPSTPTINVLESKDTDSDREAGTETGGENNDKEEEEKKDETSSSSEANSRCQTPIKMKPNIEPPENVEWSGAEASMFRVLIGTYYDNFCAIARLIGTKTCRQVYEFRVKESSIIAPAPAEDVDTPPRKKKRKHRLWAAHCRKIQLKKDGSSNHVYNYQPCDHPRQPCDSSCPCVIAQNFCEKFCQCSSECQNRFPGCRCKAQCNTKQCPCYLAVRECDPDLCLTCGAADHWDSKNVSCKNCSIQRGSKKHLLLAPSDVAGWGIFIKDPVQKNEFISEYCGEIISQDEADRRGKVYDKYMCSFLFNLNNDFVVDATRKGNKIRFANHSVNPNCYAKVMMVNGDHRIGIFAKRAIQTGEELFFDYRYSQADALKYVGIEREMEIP

bioavailability [1]: 4.94% | inhibition [10]: Active | half-life [12]: 3.81 h | inhibition (A549 [14]): Active | inhibition [15]: Dde | Cmax [17]: 27.1 µg/mL | IC50 (ASPC1 [20]): 0.69 µM | Tmax [23]: 1 h
SMILES: CCN(c1cc(-c2ccc(OCCCCCNC(=O)C[C@@H]3N=C(c4ccc(Cl)cc4)c4c(sc(C)c4C)-n4c(C)nnc43)cc2)cc(C(=O)NCc2c(C)cc(C)[nH]c2=O)c1C)C1CCOCC1
Activity (ASPC1 [2]): Active | Activity (A549 [3]): Active | Activity (HCT-116 [4]): Active | Activity (ASPC1 [5]): Active | Activity (ASPC1 [6]): Active | Activity (A549 [7]): Active | Activity (A549 [8]): Active | Activity (HCT-116 [9]): Active | Activity [11]: Non-Toxic | Activity (A549 [13]): 57.8% | Activity (HCT-116 [16]): Active | Activity (A549 [18]): Active | Activity (HCT-116 [19]): 72.9% | Activity (HCT-116 [21]): Active | Activity (HCT-116 [22]): Active

From ChEMBL document CHEMBL5154900, “Design and Synthesis of Dual EZH2/BRD4 Inhibitors to Target Solid Tumors” (J Med Chem, 2022)
